Experimental data as given in ChEMBL document CHEMBL5724914, “Linking interpersonal differences in gut microbiota composition and drug biotransformation activity” (2024).

settings: human gut metagenome, 24 h, 2 µM
Also: call rule not given here.

Row | Bacterial Biotransformation | Compound
1 | Compound metabolized | CC(C)c1c(C(=O)Nc2ccccc2)c(-c2ccccc2)c(-c2ccc(F)cc2)n1CC[C@@H](O)C[C@@H](O)CC(=O)O [ATORVASTATIN]
2 | Compound NOT metabolized | Cc1cn([C@H]2C[C@H](N=[N+]=[N-])[C@@H](CO)O2)c(=O)[nH]c1=O [ZIDOVUDINE]

settings: human gut metagenome, 24 h, 2 µM; remark: another data set of the same source

Row | Bacterial Biotransformation | Compound
3 | Compound NOT metabolized | CC(C)c1c(C(=O)Nc2ccccc2)c(-c2ccccc2)c(-c2ccc(F)cc2)n1CC[C@@H](O)C[C@@H](O)CC(=O)O [ATORVASTATIN]
4 | Compound NOT metabolized | Cc1cn([C@H]2C[C@H](N=[N+]=[N-])[C@@H](CO)O2)c(=O)[nH]c1=O [ZIDOVUDINE]

assay: (§1) The drug is tested on Z-022 corresponding to mouse gut metagenome with ENA study accession number: PRJEB37062 and ENA sample accession number: ERS12561821 for biotransformation under anaerobic condition. The drug concentrations were measured over 9 timepoints collected between 0 and 24 hours of incubation by liquid-chromatography-coupled mass spectrometry (LC–MS); settings: 2 µM

Row | Bacterial Biotransformation | Compound
5 | Compound NOT metabolized | CC(C)c1c(C(=O)Nc2ccccc2)c(-c2ccccc2)c(-c2ccc(F)cc2)n1CC[C@@H](O)C[C@@H](O)CC(=O)O [ATORVASTATIN]
6 | Compound metabolized | Cc1cn([C@H]2C[C@H](N=[N+]=[N-])[C@@H](CO)O2)c(=O)[nH]c1=O [ZIDOVUDINE]

settings: human gut metagenome, 24 h, 2 µM; remark: another data set of the same source

Row | Bacterial Biotransformation | Compound
7 | Compound NOT metabolized | CC(C)c1c(C(=O)Nc2ccccc2)c(-c2ccccc2)c(-c2ccc(F)cc2)n1CC[C@@H](O)C[C@@H](O)CC(=O)O [ATORVASTATIN]
8 | Compound NOT metabolized | Cc1cn([C@H]2C[C@H](N=[N+]=[N-])[C@@H](CO)O2)c(=O)[nH]c1=O [ZIDOVUDINE]

settings: human gut metagenome, 24 h, 2 µM; remark: another data set of the same source

Row | Bacterial Biotransformation | Compound
9 | Compound metabolized | CC(C)c1c(C(=O)Nc2ccccc2)c(-c2ccccc2)c(-c2ccc(F)cc2)n1CC[C@@H](O)C[C@@H](O)CC(=O)O [ATORVASTATIN]
10 | Compound NOT metabolized | Cc1cn([C@H]2C[C@H](N=[N+]=[N-])[C@@H](CO)O2)c(=O)[nH]c1=O [ZIDOVUDINE]

assay: as §1, with “WLS-350” for “Z-022”, “human” for “mouse”, “ERS12561789” for “ERS12561821”; settings: 2 µM

Row | Bacterial Biotransformation | Compound
11 | Compound metabolized | CC(C)c1c(C(=O)Nc2ccccc2)c(-c2ccccc2)c(-c2ccc(F)cc2)n1CC[C@@H](O)C[C@@H](O)CC(=O)O [ATORVASTATIN]
12 | Compound NOT metabolized | Cc1cn([C@H]2C[C@H](N=[N+]=[N-])[C@@H](CO)O2)c(=O)[nH]c1=O [ZIDOVUDINE]

settings: human gut metagenome, 24 h, 2 µM; remark: another data set of the same source

Row | Bacterial Biotransformation | Compound
13 | Compound metabolized | CC(C)c1c(C(=O)Nc2ccccc2)c(-c2ccccc2)c(-c2ccc(F)cc2)n1CC[C@@H](O)C[C@@H](O)CC(=O)O [ATORVASTATIN]
14 | Compound NOT metabolized | Cc1cn([C@H]2C[C@H](N=[N+]=[N-])[C@@H](CO)O2)c(=O)[nH]c1=O [ZIDOVUDINE]

assay: as §1, with “Z-029” for “Z-022”, “rat” for “mouse”, “ERS12561828” for “ERS12561821”; settings: 2 µM

Row | Bacterial Biotransformation | Compound
15 | Compound NOT metabolized | CC(C)c1c(C(=O)Nc2ccccc2)c(-c2ccccc2)c(-c2ccc(F)cc2)n1CC[C@@H](O)C[C@@H](O)CC(=O)O [ATORVASTATIN]
16 | Compound metabolized | Cc1cn([C@H]2C[C@H](N=[N+]=[N-])[C@@H](CO)O2)c(=O)[nH]c1=O [ZIDOVUDINE]

settings: human gut metagenome, 24 h, 2 µM; remark: another data set of the same source

Row | Bacterial Biotransformation | Compound
17 | Compound NOT metabolized | CC(C)c1c(C(=O)Nc2ccccc2)c(-c2ccccc2)c(-c2ccc(F)cc2)n1CC[C@@H](O)C[C@@H](O)CC(=O)O [ATORVASTATIN]
18 | Compound NOT metabolized | Cc1cn([C@H]2C[C@H](N=[N+]=[N-])[C@@H](CO)O2)c(=O)[nH]c1=O [ZIDOVUDINE]

settings: human gut metagenome, 24 h, 2 µM; remark: another data set of the same source

Row | Bacterial Biotransformation | Compound
19 | Compound metabolized | CC(C)c1c(C(=O)Nc2ccccc2)c(-c2ccccc2)c(-c2ccc(F)cc2)n1CC[C@@H](O)C[C@@H](O)CC(=O)O [ATORVASTATIN]
20 | Compound NOT metabolized | Cc1cn([C@H]2C[C@H](N=[N+]=[N-])[C@@H](CO)O2)c(=O)[nH]c1=O [ZIDOVUDINE]

assay: as §1, with “Z-017” for “Z-022”, “ERS12561816” for “ERS12561821”; settings: 2 µM

Row | Bacterial Biotransformation | Compound
21 | Compound NOT metabolized | CC(C)c1c(C(=O)Nc2ccccc2)c(-c2ccccc2)c(-c2ccc(F)cc2)n1CC[C@@H](O)C[C@@H](O)CC(=O)O [ATORVASTATIN]
22 | Compound metabolized | Cc1cn([C@H]2C[C@H](N=[N+]=[N-])[C@@H](CO)O2)c(=O)[nH]c1=O [ZIDOVUDINE]

assay: as §1, with “WLS-220” for “Z-022”, “human” for “mouse”, “ERS12561769” for “ERS12561821”; settings: 2 µM

Row | Bacterial Biotransformation | Compound
23 | Compound NOT metabolized | CC(C)c1c(C(=O)Nc2ccccc2)c(-c2ccccc2)c(-c2ccc(F)cc2)n1CC[C@@H](O)C[C@@H](O)CC(=O)O [ATORVASTATIN]
24 | Compound NOT metabolized | Cc1cn([C@H]2C[C@H](N=[N+]=[N-])[C@@H](CO)O2)c(=O)[nH]c1=O [ZIDOVUDINE]

assay: as §1, with “Z-004” for “Z-022”, “to” for “to mouse gut”, “ERS12561804” for “ERS12561821”; settings: 2 µM

Row | Bacterial Biotransformation | Compound
25 | Compound NOT metabolized | CC(C)c1c(C(=O)Nc2ccccc2)c(-c2ccccc2)c(-c2ccc(F)cc2)n1CC[C@@H](O)C[C@@H](O)CC(=O)O [ATORVASTATIN]
26 | Compound metabolized | Cc1cn([C@H]2C[C@H](N=[N+]=[N-])[C@@H](CO)O2)c(=O)[nH]c1=O [ZIDOVUDINE]

assay: as §1, with “Z-005” for “Z-022”, “to” for “to mouse gut”, “ERS12561805” for “ERS12561821”; settings: 2 µM

Row | Bacterial Biotransformation | Compound
27 | Compound metabolized | CC(C)c1c(C(=O)Nc2ccccc2)c(-c2ccccc2)c(-c2ccc(F)cc2)n1CC[C@@H](O)C[C@@H](O)CC(=O)O [ATORVASTATIN]
28 | Compound NOT metabolized | Cc1cn([C@H]2C[C@H](N=[N+]=[N-])[C@@H](CO)O2)c(=O)[nH]c1=O [ZIDOVUDINE]

assay: as §1, with “WLS-069” for “Z-022”, “human” for “mouse”, “ERS12561748” for “ERS12561821”; settings: 2 µM

Row | Bacterial Biotransformation | Compound
29 | Compound metabolized | CC(C)c1c(C(=O)Nc2ccccc2)c(-c2ccccc2)c(-c2ccc(F)cc2)n1CC[C@@H](O)C[C@@H](O)CC(=O)O [ATORVASTATIN]
30 | Compound NOT metabolized | Cc1cn([C@H]2C[C@H](N=[N+]=[N-])[C@@H](CO)O2)c(=O)[nH]c1=O [ZIDOVUDINE]

assay: as §1, with “WLS-052” for “Z-022”, “human” for “mouse”, “ERS12561747” for “ERS12561821”; settings: 2 µM

Row | Bacterial Biotransformation | Compound
31 | Compound metabolized | CC(C)c1c(C(=O)Nc2ccccc2)c(-c2ccccc2)c(-c2ccc(F)cc2)n1CC[C@@H](O)C[C@@H](O)CC(=O)O [ATORVASTATIN]
32 | Compound NOT metabolized | Cc1cn([C@H]2C[C@H](N=[N+]=[N-])[C@@H](CO)O2)c(=O)[nH]c1=O [ZIDOVUDINE]

assay: as §1, with “Z-006” for “Z-022”, “ERS12561806” for “ERS12561821”; settings: 2 µM

Row | Bacterial Biotransformation | Compound
33 | Compound NOT metabolized | CC(C)c1c(C(=O)Nc2ccccc2)c(-c2ccccc2)c(-c2ccc(F)cc2)n1CC[C@@H](O)C[C@@H](O)CC(=O)O [ATORVASTATIN]
34 | Compound NOT metabolized | Cc1cn([C@H]2C[C@H](N=[N+]=[N-])[C@@H](CO)O2)c(=O)[nH]c1=O [ZIDOVUDINE]

settings: human gut metagenome, 24 h, 2 µM; remark: another data set of the same source

Row | Bacterial Biotransformation | Compound
35 | Compound metabolized | CC(C)c1c(C(=O)Nc2ccccc2)c(-c2ccccc2)c(-c2ccc(F)cc2)n1CC[C@@H](O)C[C@@H](O)CC(=O)O [ATORVASTATIN]
36 | Compound NOT metabolized | Cc1cn([C@H]2C[C@H](N=[N+]=[N-])[C@@H](CO)O2)c(=O)[nH]c1=O [ZIDOVUDINE]

settings: human gut metagenome, 24 h, 2 µM; remark: another data set of the same source

Row | Bacterial Biotransformation | Compound
37 | Compound NOT metabolized | CC(C)c1c(C(=O)Nc2ccccc2)c(-c2ccccc2)c(-c2ccc(F)cc2)n1CC[C@@H](O)C[C@@H](O)CC(=O)O [ATORVASTATIN]
38 | Compound NOT metabolized | Cc1cn([C@H]2C[C@H](N=[N+]=[N-])[C@@H](CO)O2)c(=O)[nH]c1=O [ZIDOVUDINE]

settings: human gut metagenome, 24 h, 2 µM; remark: another data set of the same source

Row | Bacterial Biotransformation | Compound
39 | Compound metabolized | CC(C)c1c(C(=O)Nc2ccccc2)c(-c2ccccc2)c(-c2ccc(F)cc2)n1CC[C@@H](O)C[C@@H](O)CC(=O)O [ATORVASTATIN]
40 | Compound NOT metabolized | Cc1cn([C@H]2C[C@H](N=[N+]=[N-])[C@@H](CO)O2)c(=O)[nH]c1=O [ZIDOVUDINE]
